Experimental data from patent publication US20070172957A1, “Methods of identifying anti-inflammatory macrolides” (TAISHO PHARMACEUTICAL CO., LTD., priority 2004, published 2007).

System: genes predictive for the anti-inflammatory macrolide effect
Assay: Genes statistically predictive of Clari response: differentially expressed with Clari but not the inactive macrolides MAA or Josa (Appendix E)
Format: cell-based
Conditions: pooled group mean
Source text: In the case of the above-mentioned (i) related to arachidonic acid biosynthesis, specifically, methods of the embodiment involve assaying whether a test macrolide alters biosynthesis of arachidonic acid, alters the expression or activities of enzymes involved in the biosynthesis or activation of arachidonic acid (e.g., arachidonic acid CoA synthetase, delta-6 desaturase, fatty acid elongase, and delta-5 desaturase, AA-related genes in Tables 2 and 3), or alters the expression of genes identified as predictive for the anti-inflammatory macrolide effect (Appendix E). Assays in which arachidonic acid or gene expression or enzymatic activity is detected can be carried out after contacting a cell with a test macrolide. Any cell line that secretes prostaglandin or produces arachidonic acid can be used. Epithelial and macrophages lines (e.g., A549 or THP-1) are suitable for this purpose; other cell lines can be identified by carrying out assays such as those described in the specific Examples, below. Alternatively, screening assays can be carried out after adding a test macrolide to an in vitro cell system (e.g., a cellular extract or liver microsome preparation) or an in vitro enzyme assay system.

CC[C@H]1OC(=O)[C@H](C)[C@@H](O[C@H]2C[C@@](C)(OC)[C@@H](O)[C@H](C)O2)[C@H](C)[C@@H](O[C@@H]2O[C@H](C)C[C@H](N(C)C)[C@H]2O)[C@](C)(O)C[C@@H](C)/C(=N\OCOCCOC)[C@H](C)[C@@H](O)[C@]1(C)O [roxithromycin]
mean group, FLJ20699 (SpotID 46633): 0.81 | mean group, ARHGAP1 (SpotID 46648): 0.96 | mean group, KIAA1172 (SpotID 46679): 0.92 | mean group, MKNK2 (SpotID 46825): 1.12 | mean group, ARHGDIA (SpotID 46843): 0.93 | mean group, CDIPT (SpotID 46896): 1.01 | mean group, PACE (SpotID 46923): 1.09 | mean group, METAP2 (SpotID 46935): 0.89 | mean group, EREG (SpotID 46988): 0.85 | mean group, C2orf3 (SpotID 47034): 0.90 | mean group, NUBP1 (SpotID 47241): 0.95 | mean group, EPOR (SpotID 47314): 1.14 | mean group, ADAM11 (SpotID 47352): 1.10 | mean group, P4HB (SpotID 47366): 1.18 | mean group, CETN2 (SpotID 47415): 1.18 | mean group, SNK (SpotID 47418): 0.82 | mean group, GCS1 (SpotID 47432): 1.02 | mean group, DCTN1 (SpotID 47439): 0.95 | mean group, RANBP1 (SpotID 47446): 0.89 | mean group, MSH3 (SpotID 47504): 0.99 | mean group, SERPINA1 (SpotID 47522): 0.95 | mean group, TRAP1 (SpotID 47622): 0.94 | mean group, NR4A2 (SpotID 47679): 1.14 | mean group, HSPA9B (SpotID 47694): 0.95 | mean group, NBS1 (SpotID 47754): 0.97 | mean group, POLA (SpotID 47776): 0.89 | mean group, GOT1 (SpotID 47802): 0.94 | mean group, ENTPD6 (SpotID 47811): 1.06 | mean group, SSI-1 (SpotID 47846): 0.93 | mean group, PRLR (SpotID 47850): 0.99 | mean group, P4HA1 (SpotID 47935): 1.18 | mean group, DNASE1L1 (SpotID 47950): 1.03 | mean group, USF2 (SpotID 47973): 1.05 | mean group, THBS1 (SpotID 47987): 0.71 | mean group, RPN2 (SpotID 47988): 1.02 | mean group, CUTL1 (SpotID 48004): 1.02 | mean group, SRF (SpotID 48026): 1.03 | mean group, FRDA (SpotID 48137): 0.90 | mean group, SFRS7 (SpotID 48149): 0.88 | mean group, ZAP3 (SpotID 48160): 0.95 | mean group, MAPK12 (SpotID 48233): 1.03 | mean group, GRB2 (SpotID 48266): 1.04 | mean group, GCN5L1 (SpotID 48301): 1.01 | mean group, CCT3 (SpotID 48345): 1.03 | mean group, MAPK9 (SpotID 48365): 0.94 | mean group, MGEA5 (SpotID 48411): 1.13 | mean group, SERPINB1 (SpotID 48415): 1.28 | mean group, DDC (SpotID 48456): 0.97 | mean group, BARD1 (SpotID 48461): 0.86 | mean group, SpotID 48486 (SpotID 48486 (gene symbol not given)): 0.94 | mean group, RPL13A (SpotID 48500): 0.92 | mean group, ARAF1 (SpotID 48521): 0.98 | mean group, APLP2 (SpotID 48530): 1.10 | mean group, NFE2L1 (SpotID 48557): 1.06 | mean group, XBP1 (SpotID 48620): 1.10 | mean group, SDCBP (SpotID 48646): 1.08 | mean group, FECH (SpotID 48654): 0.98 | mean group, HSPBP1 (SpotID 48693): 0.91 | mean group, P4HA1 (SpotID 48707): 1.18 | mean group, PPP3CB (SpotID 48717): 0.95 | mean group, IKKE (SpotID 48725): 0.94 | mean group, RALA (SpotID 48732): 1.06 | mean group, MAFB (SpotID 48747): 0.93 | mean group, KIAA0217 (SpotID 48804): 0.88 | mean group, ITGAE (SpotID 48921): 0.97 | mean group, PRSS25 (SpotID 49006): 1.14 | mean group, TM9SF2 (SpotID 49007): 1.18 | mean group, BNIP3L (SpotID 49028): 1.20 | mean group, SERPINB1 (SpotID 49117): 0.88 | mean group, ARTS-1 (SpotID 49155): 0.86 | mean group, RRS1 (SpotID 49169): 0.93 | mean group, APOE (SpotID 49233): 1.01 | mean group, TNFRSF10B (SpotID 49272): 1.08 | mean group, PPIB (SpotID 49314): 1.16 | mean group, YWHAH (SpotID 49318): 0.97 | mean group, TEB4 (SpotID 49360): 0.94 | mean group, SpotID 49374 (SpotID 49374 (gene symbol not given)): 1.03 | mean group, TRRAP (SpotID 49435): 0.92 | mean group, SRC (SpotID 49446): 1.14 | mean group, VTN (SpotID 49490): 0.94 | mean group, UBC (SpotID 49514): 1.09 | mean group, AP1G2 (SpotID 49524): 0.92 | mean group, LOC54543 (SpotID 49577): 1.02 | mean group, CSTF3 (SpotID 49606): 1.07 | mean group, CLN2 (SpotID 49618): 1.12 | mean group, BTN3A2 (SpotID 49673): 1.11 | mean group, SERPINF1 (SpotID 49679): 1.09 | mean group, CHAF1B (SpotID 49737): 0.88 | mean group, AD022 (SpotID 49767): 1.10 | mean group, CYC1 (SpotID 49787): 0.94 | mean group, AD022 (SpotID 49800): 1.09 | mean group, ATP2B4 (SpotID 49915): 1.06 | mean group, RFC1 (SpotID 49947): 0.93 | mean group, HIF1A (SpotID 50022): 0.93 | mean group, NDUFA2 (SpotID 50050): 1.02 | mean group, SCOP (SpotID 50079): 1.04 | mean group, CNOT3 (SpotID 50099): 0.86 | mean group, IL10RB (SpotID 50267): 1.08 | mean group, IKKE (SpotID 50342): 1.08 | mean group, LOC51295 (SpotID 50349): 0.84 | mean group, CFL1 (SpotID 50351): 1.00 | mean group, GOCAP1 (SpotID 50421): 1.10 | mean group, MGP (SpotID 50511): 0.98 | mean group, ARHC (SpotID 50513): 1.00 | mean group, BN51T (SpotID 50584): 1.07 | mean group, CKS2 (SpotID 50590): 0.89 | mean group, SpotID 50591 (SpotID 50591 (gene symbol not given)): 1.13 | mean group, SRP19 (SpotID 50601): 1.06 | mean group, BET1 (SpotID 50645): 1.01 | mean group, PRKDC (SpotID 50736): 0.92 | mean group, AD022 (SpotID 50738): 1.10
